Experiment [1] concerns F. varium. As to the kind of experiment: Rumen fluid enrichment cultures with lactate. Format: cell-based, Fusobacterium varium. Particulars: lactate present in rumen fluid enrichment cultures. The source says: Microbial lactate utilization is linked to several pathogenic mechanisms. […] Currently it is unknown if some or all cattle-associated F. varium strains are able to derive energy from lactate. […] Thus, it is possible that the acquisition of this or a similar mobile genetic element has provided some bovine F. varium strains with the capability of utilizing lactate as a source of energy and a means for avoiding host immunity.
This identification was based on 16S rRNA sequencing using close to the full-length gene (27F/1492R primers), a reliable method for determining bacterial species (FIG. 1).

The subject of experiment [2] is F. varium. The experiment can be described thus: Antimicrobial susceptibility testing: growth of F. varium strains exposed to tylosin and monensin. Format: cell-based, Fusobacterium varium. Particulars: for growth inhibition: all tested F. varium strains. The text has this: (§1) In an effort to understand the differential response of Fusobacterium species to antimicrobial agents commonly used in livestock, we examined the effect of tylosin and monensin on the growth of reference strains and newly isolated strains of F. varium and F. necrophorum.
(§2) To set up the experiment, we exposed three strains each of F. varium and F. necrophorum to tylosin and monensin at concentrations relevant to ruminal environments.

Experiment [3] relates to F. necrophorum. As to the kind of experiment: Antimicrobial susceptibility testing: growth of F. necrophorum strains exposed to tylosin and monensin. Format: cell-based, Fusobacterium necrophorum. The following applies: for decline/reduction in growth: F. necrophorum strain 8L1; for growth inhibition: all three F. necrophorum strains tested.
Excerpt: as §1, §2
Strains A and 8L1 were most affected, with both displaying a 98% reduction in growth. […] In this context, growth reductions of 44-66% were observed (P<0.05).

In experiment [4] the test system is Fusobacterium necrophorum. The following applies: grain-fed cattle; antibiotic as component of cattle feed; cited from earlier work.
Setting [5] is: concentrations relevant to ruminal environments.

Take `CC(O)C(=O)O` (stereo not drawn) [lactate]: the “enrichment of native F. varium strains” value in experiment [1] is on record as “up to 35,000 fold”.
`CC[C@@]1([C@@H]2O[C@@H]([C@H]3O[C@@](O)(CO)[C@H](C)C[C@@H]3C)C[C@@H]2C)CC[C@H]([C@]2(C)CC[C@]3(C[C@H](O)[C@@H](C)[C@@H]([C@@H](C)[C@@H](OC)[C@H](C)C(=O)O)O3)O2)O1` [monensin]: the decrease in growth in experiment [2] (F. varium bovine isolates, concentrations relevant to ruminal environments) came out at 15%. Besides, the growth inhibition entry in experiment [2] (setting [5]) is “did not show substantial growth inhibition”. In experiment [2] (reference strain F. varium NCTC 10560), the growth response entry is reported as “no significant response”. Further, in experiment [3], the decline/reduction in growth stood at 98% and the growth inhibition result is reported as “more than 87%”. For the same molecule, the reduction in growth in experiment [3] (F. necrophorum strain A) amounted to 98%. In addition, the growth reduction in experiment [3] (F. necrophorum, medium containing only casein pancreatic digest and yeast extract as carbon sources) was 44-66%.
Consider `CC[C@H]1OC(=O)C[C@@H](O)[C@H](C)[C@@H](O[C@@H]2O[C@H](C)[C@@H](O[C@H]3C[C@@](C)(O)[C@@H](O)[C@H](C)O3)[C@H](N(C)C)[C@H]2O)[C@@H](CC=O)C[C@@H](C)C(=O)/C=C/C(C)=C/[C@@H]1CO[C@@H]1O[C@H](C)[C@@H](O)[C@@H](OC)[C@H]1OC` [tylosin], for which the growth inhibition result in experiment [2] (setting [5]) is on record as “none of the tested strains exhibited substantial growth inhibition”; in experiment [3], “over 67%”. The decline in growth in experiment [2] (strain F. varium DNLA-8, concentrations relevant to ruminal environments) stood at 13%; in experiment [3] (F. necrophorum strain FNA), 94%. The molecule further gave a decline/reduction in growth in experiment [3] of 92%. Further, the “ruminal concentrations of Fusobacterium necrophorum” value in experiment [4] is given as “significantly reduced”.
Turning to virginiamycin, in experiment [4], the “ruminal concentrations of Fusobacterium necrophorum” value was “significantly reduced”.

(Values after patent US20240382540A1, “MODULATION OF FUSOBACTERIUM VARIUM TO PREVENT BOVINE LIVER ABSCESSES AND IMPROVE CATTLE PERFORMANCE” (priority 2023, published 2024).)
